Patent US8846671B2, “Heterocyclic alkynyl benzene compounds and medical compositions and uses thereof” (Guangzhou Institute of Biomedicine and Health, Chinese …, priority 2010, dated 2014)
Counter-ions that a name gives are not always drawn. Like-named read-outs stand apart in the source and are kept apart here.

Legend:
[1] = system: K562 cells (human CML cell line expressing native Bcr-Abl); test: Xenograft model of K562 in nude mice, oral dosing; settings: for anti-tumor effect compared with imatinib / effect on body weight: po, qd
Method: Tumor volume and body weight were monitored once every 2 days (In each group, the tumor volume and body weight at beginning of the day were recorded). Tumor volume was calculated as […]*a*b*b.L×W2/2 (a and b are the length and width of the tumor, respectively). […] The results were shown in Drawings as FIGS. 1, 2, 3, 4, 5, 6, 7 and 8.

[2] = Pharmacokinetics and bioavailability in rats; type: in vivo; settings: SD rats; for BA(% Oral bioavailability) / bioavailability: calculated according to AUC data, PO vs IV; for pharmacokinetics parameters, overall judgement: corresponding pharmaceutical acceptable salt forms; for bioavailability: read-out: BA(% Oral bioavailability)
In short: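 Rats dosed, heparinized blood sampled at set times, plasma stored at -20 °C, acetonitrile-precipitated and analyzed by HPLC-MS. Compartmental and non-compartmental parameters derived; bioavailability from AUC.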

[3] = system: K562 (human chronic myelogenous leukemia cell line); test: tumor cell proliferation, MTT or CCK8 assay, 72 h incubation; type: cell-based; settings: K562, 72 h, read-out: IC50 on tumor cell proliferation, K562
In short: (§1)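 Leukemia cell lines were exposed to compounds at 1×10^−10˜1×10^−5M for 72 h. Proliferation was read by MTT (570 nm) or CCK8 (450/650 nm) after a further 4 h incubation. IC50 values were calculated from inhibition of proliferation.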

[4] = system: L78 (Lung cancer cell line); test: as above; type: cell-based; settings: Homo sapiens, read-out: IC50 on tumor cell proliferation, L78
[5] = system: MEG-01 (Human megakaryoblastic leukaemia cell line); test: as above; type: cell-based; settings: MEG-01, 72 h, read-out: IC50 on tumor cell proliferation, MEG-01
In short: as §1

[6] = system: MOLT-4 (Human acute lymphoblastic leukemia cell line); test: as above; type: cell-based; settings: MOLT-4, 72 h, read-out: IC50 on tumor cell proliferation, MOLT-4
In short: as §1

U937 Cell line = test: as above; type: cell-based; settings: Homo sapiens, read-out: IC50 on tumor cell proliferation, U937
In short: as §1

[7] = system: K562R cells (imatinib-resistant cell line); test: as above; type: cell-based; settings: Homo sapiens, K-562R, read-out: IC50 on tumor cell proliferation, K562R cells
[8] = target: BAF3-T315I cells (Ba/F3 cell line stably expressing BCR/ABL T315I) (Homo sapiens, UniProt P00519, T315I, cells depend on it); test: as above; type: cell-based, mice
[9] = system: Ba/F3-Bcr/ABL-T315I cells; test: Xenograft model of BAF3-T315I in SCID nude mice, oral dosing
Method: When the mean tumor volume reached 300-500 mm^3, mice were grouped and administered orally. […] Tumor volume and body weight were monitored once every 2 days (In each group, the tumor volume and body weight at beginning of the day were recorded). Tumor volume was calculated as π/6*a*b*b.L×W2/2 (a and b are the length and width of the tumor, respectively). […] The results were shown in Drawings as FIG. 9, 10, 11, 12, 13, 14, 15, 16.

[10] = both sexes, Sprague-Dawley, rat, plasma, iv, 10 mg/kg, IV 10 mg/kg
[11] = both sexes, Sprague-Dawley, rat, plasma, iv, 10 mg/kg, IV 10 mg/kg, read-out: Cmax
[12] = both sexes, Sprague-Dawley, rat, plasma, iv, 10 mg/kg, IV 10 mg/kg, read-out: Tmax
[13] = both sexes, Sprague-Dawley, rat, plasma, po, 25 mg/kg, PO 25 mg/kg
[14] = both sexes, Sprague-Dawley, rat, plasma, po, 25 mg/kg, PO 25 mg/kg, read-out: Cmax
[15] = both sexes, Sprague-Dawley, rat, plasma, po, 25 mg/kg, PO 25 mg/kg, read-out: Tmax
[16] = read-out: IC50 on tumor cell proliferation, BAF3-T315I cells; Ba/F3 expressing BCR/ABL T315I, 72 h, Table 1
[17] = both sexes, Sprague-Dawley, rat, plasma, po
[18] = Ba/F3-Bcr/ABL-T315I xenograft, 25 mg/kg po, q2d or qd
[19] = both sexes, Sprague-Dawley, rat, plasma, iv, 5 mg/kg, IV 5 mg/kg
[20] = both sexes, Sprague-Dawley, rat, plasma, iv, 5 mg/kg, IV 5 mg/kg, read-out: Cmax
[21] = both sexes, Sprague-Dawley, rat, plasma, iv, 5 mg/kg, IV 5 mg/kg, read-out: Tmax
[22] = 20 mg/kg po, q2d or qd (Example 51)

Cc1cn(-c2cc(NC(=O)c3ccc(C)c(C#Cc4cnc(NC5CC5)nc4)c3)cc(C(F)(F)F)c2)cn1 [D747 hydrochloride salt, 3-(2-(2-(cyclopropylamino)pyrimidin-5-yl)ethynyl)-4-methyl-N-(3-(4-methyl-1H-imidazol-1-yl)-5-(trifluoromethyl)phenyl)benzamide]
effect on tumor growth ([1]; 25 mg/kg po qd): completely inhibit the tumor growth | anti-tumor effect compared with imatinib [1]: better anti-tumor effect than imatinib | effect on body weight [1]: did not cause the body weight loss | BA(% Oral bioavailability) [2]: 35.3% | AUC(0-inf) [2, 10]: 285 µg·h/mL | half-life [2, 10]: 71.8 h | Cmax [2, 11]: 49.8 µg/mL | Tmax [2, 12]: 0.033 h | AUC(0-inf) [2, 13]: 252 µg·h/mL | half-life [2, 13]: 48.7 h | Cmax [2, 14]: 6.21 µg/mL | Tmax [2, 15]: 4.5 h

Cc1cn(-c2cc(NC(=O)c3ccc(C)c(C#Cc4cnc(NC5CC5)nc4)c3)cc(C(F)(F)F)c2)cn1 [D747, 3-(2-(2-(cyclopropylamino)pyrimidin-5-yl)ethynyl)-4-methyl-N-(3-(4-methyl-1H-imidazol-1-yl)-5-(trifluoromethyl)phenyl)benzamide]
IC50 [3]: 2.6 nM | IC50 [4]: 10600 nM | IC50 [5]: 7540 nM | IC50 [6]: > 10000 nM | IC50 (U937 Cell line; U-937, 72 h): 11500 nM | IC50 [7]: 0.096 µM | GI50 [8, 16]: 0.0997 µM | pharmacokinetics parameters, overall judgement [2]: adequate pharmacokinetics parameters

Cc1cn(-c2cc(NC(=O)c3ccc(C)c(C#Cc4cnc(NC(C)C)nc4)c3)cc(C(F)(F)F)c2)cn1 [D752, 3-(2-(2-(isopropylamino)pyrimidin-5-yl)ethynyl)-4-methyl-N-(3-(4-methyl-1H-imidazol-1-yl)-5-(trifluoromethyl)phenyl)benzamide]
IC50 [3]: 3.48 nM | IC50 [4]: > 10000 nM | IC50 [5]: 22600 nM | IC50 [6]: 12700 nM | IC50 (U937 Cell line; U-937, 72 h): 8990 nM | IC50 [7]: 0.84 µM | GI50 [8, 16]: 1.03 µM | pharmacokinetics parameters, overall judgement [2]: adequate pharmacokinetics parameters

CCNc1ncc(C#Cc2cc(C(=O)Nc3cc(-n4cnc(C)c4)cc(C(F)(F)F)c3)ccc2C)cn1 [D755, 3-(2-(2-(ethylamino)pyrimidin-5-yl)ethynyl)-4-methyl-N-(3-(4-methyl-1H-imidazol-1-yl)-5-(trifluoromethyl)phenyl)benzamide]
IC50 [3]: 7.59 nM | IC50 [4]: 11800 nM | IC50 [5]: > 10000 nM | IC50 [6]: > 10000 nM | IC50 (U937 Cell line; U-937, 72 h): > 10000 nM | IC50 [7]: 0.22 µM | GI50 [8, 16]: 0.061 µM | pharmacokinetics parameters, overall judgement [2]: adequate pharmacokinetics parameters

Cc1cn(-c2cc(NC(=O)c3ccc(C)c(C#Cc4cnc5[nH]ncc5c4)c3)cc(C(F)(F)F)c2)cn1 [D767 mesylate salt, 3-(2-(1H-pyrazolo[3,4-b]pyridin-5-yl)ethynyl)-4-methyl-N-(3-(4-methyl-1H-imidazol-1-yl)-5-(trifluoromethyl)phenyl)benzamide]
effect on tumor growth ([1]; 25 mg/kg po qd): completely inhibit the tumor growth | effect on body weight [1]: did not cause the body weight loss | Tmax ([2]; IV 5 mg/kg): 0.033 h | AUC(0-∞) ([2]; IV 5 mg/kg, 5 mg/kg): 59.22245 µg·h/mL | Cmax ([2]; IV 5 mg/kg, 5 mg/kg): 14.09375 µg/mL | T1/2 ([2]; IV 5 mg/kg, 5 mg/kg): 4.471 h | AUC(0-∞) ([2]; PO 25 mg/kg, 25 mg/kg): 27.850615 µg·h/mL | Cmax ([2]; PO 25 mg/kg, 25 mg/kg): 2.3225 µg/mL | T1/2 ([2]; PO 25 mg/kg, 25 mg/kg): 5.949 h | Tmax ([2]; PO 25 mg/kg, 25 mg/kg): 2.75 h | BA(% Oral bioavailability) [2]: 9.4%

Cc1cn(-c2cc(NC(=O)c3ccc(C)c(C#Cc4cnc5[nH]ncc5c4)c3)cc(C(F)(F)F)c2)cn1 [D767, 3-(2-(1H-pyrazolo[3,4-b]pyridin-5-yl)ethynyl)-4-methyl-N-(3-(4-methyl-1H-imidazol-1-yl)-5-(trifluoromethyl)phenyl)benzamide]
IC50 ([3]; MTT or CCK8, nM): 0.208 nM | IC50 ([4]; MTT or CCK8, nM): 11.8 nM | IC50 ([5]; MTT or CCK8, nM): > 100 nM | IC50 ([6]; MTT or CCK8, nM): > 100 nM | IC50 (U937 Cell line; U-937, 72 h, MTT or CCK8, nM): > 100 nM | IC50 ([7]; imatinib-resistant K562R): 0.089 µM | GI50 ([8]; Ba/F3 expressing BCR/ABL T315I, 72 h, Table 1; read-out: IC50 on tumor cell proliferation, BAF3-T315I cells): 0.00424 µM | pharmacokinetics parameters, overall judgement [2]: adequate pharmacokinetics parameters

Cc1cn(-c2cc(NC(=O)c3ccc(C)c(C#Cc4cnc5ccnn5c4)c3)cc(C(F)(F)F)c2)cn1 [D822 mesylate salt, 4-methyl-N-(3-(4-methyl-1H-imidazol-1-yl)-5-(trifluoromethyl)phenyl)-3-(2-(pyrazolo[1,5-a]pyrimidin-6-yl)ethynyl)benzamide]
effect on tumor growth ([1]; 25 mg/kg po qd): completely inhibit the tumor growth | anti-tumor effect compared with imatinib [1]: better anti-tumor effect than imatinib | effect on body weight [1]: did not cause the body weight loss | AUC(0-inf) [2, 10]: 13.8 µg·h/mL | half-life [2, 10]: 3.15 h | Cmax [2, 11]: 23.1 µg/mL | Tmax [2, 12]: 0.033 h | AUC(0-inf) [2, 13]: 10.7 µg·h/mL | half-life [2, 13]: 8.04 h | Cmax [2, 14]: 0.814 µg/mL | Tmax [2, 15]: 3 h | bioavailability [2, 17]: 31.2%

Cc1ccc(C(=O)Nc2ccc(CN3CCN(C)CC3)c(C(F)(F)F)c2)cc1C#Cc1cnc2[nH]ncc2c1 [D824 dimesylate salt, 3-(2-(1H-pyrazolo[3,4-b]pyridin-5-yl)ethynyl)-4-methyl-N-(4-((4-methylpiperazin-1-yl)methyl)-3-(trifluoromethyl)phenyl)benzamide dimesylate]
effect on tumor growth ([1]; 5 mg/kg po qd): completely inhibit the tumor growth | effect on body weight [1]: did not cause the body weight loss | effect on body weight [9, 18]: help the body weight gain | effect on tumor growth [9, 18]: almost completely suppressed the tumor growth | Tmax ([2]; PO 25 mg/kg, dimesylate, 25 mg/kg): 4.25 h | AUC(0-inf) [2, 19]: 4.3 µg·h/mL | half-life [2, 19]: 6.1 h | Cmax [2, 20]: 2.24 µg/mL | Tmax [2, 21]: 0.033 h | AUC(0-inf) [2, 13]: 12.6 µg·h/mL | half-life [2, 13]: 8.72 h | Cmax [2, 14]: 0.775 µg/mL | bioavailability [2, 17]: 58.7%

Cc1ccc(C(=O)Nc2ccc(CN3CCN(C)CC3)c(C(F)(F)F)c2)cc1C#Cc1cnc2ccnn2c1 [D856 dimesylate salt, 4-methyl-N-(4-((4-methylpiperazin-1-ylmethyl)-3-(trifluoromethyl)phenyl)-3-(2-(pyrazolo[1,5-a]pyrimidin-6-yl)ethynyl)benzamide dimesylate]
effect on tumor growth [9, 22]: inhibit the tumor growth | AUC(0-inf) [2, 19]: 8.17 µg·h/mL | half-life [2, 19]: 20 h | Cmax [2, 20]: 0.934 µg/mL | Tmax [2, 21]: 0.033 h | AUC(0-inf) [2, 13]: 31.8 µg·h/mL | half-life [2, 13]: 22.2 h | Cmax [2, 14]: 0.899 µg/mL | Tmax [2, 15]: 6.5 h | bioavailability [2, 17]: 78%

Cc1cn(-c2cc(NC(=O)c3ccc(C)c(C#Cc4cnc5[nH]ncc5c4)c3)cc(C(C)(C)C)c2)cn1 [D968 mesylate, 3-(2-(1H-pyrazolo[3,4-b]pyridin-5-yl)ethynyl)-N-(3-tert-butyl-5-(4-methyl-1H-imidazol-1-yl)phenyl)-4-methylbenzamide mesylate]
effect on tumor growth [9, 22]: inhibit the tumor growth
